Test results published in ChEMBL document CHEMBL4680330, “Soloxolone methyl, as a 18βH-glycyrrhetinic acid derivate, may result in endoplasmic reticulum stress to induce apoptosis in breast cancer cells” (Bioorg Med Chem, 2021).
pIC50: −log10 of the molar value. Active and inactive are the calls of the source. No cut-off for these calls is given here.

How the values were obtained:
[1] = Induction of caspase 3/7 activity in human MDA-MB-231 cells assessed as induction of apoptosis by measuring viable cells at 10 uM incubated for 24 hrs by flow cytometry analysis (reference value: 97.25 %); assay type: functional
MCF7 [2] = experiment: Induction of apoptosis in human MCF7 cells assessed as pro-caspase 3 level at 10 uM incubated for 24 hrs by Western blot analysis (reference value: 1); assay type: functional
MCF7 [3] = experiment: Induction of apoptosis in human MCF7 cells assessed as cleaved pro-caspase 3 level at 10 uM incubated for 24 hrs by Western blot analysis (reference value: 1); assay type: functional
MDA-MB-231 [4] = experiment: Cytotoxicity against human MDA-MB-231 cells assessed as reduction in cell viability incubated for 24 hrs by ATP based luminometry; assay type: functional; details: MDA-MB-231, 24 h
MCF7 [5] = experiment: Induction of cell death in human MCF7 cells assessed as downregulation of PARP gene at 10 uM measured after 48 hrs by RT-PCR analysis; assay type: functional, cell-based
MCF7 [6] = experiment: Induction of late apoptosis in human MCF7 cells assessed as increase in rate of formation of pycnotic nuclei at 10 uM by Hoechst 33342 and PI staining based fluorescence microscopic analysis; assay type: functional, cell-based; details: TDE = time-dependent effect
MDA-MB-231 [7] = experiment: Induction of cell death in human MDA-MB-231 cells assessed as upregulation of HRK gene at 10 uM incubated for 48 hrs by RT-PCR analysis; assay type: functional, cell-based
MCF7 [8] = experiment: Induction of cell death in human MCF7 cells assessed as upregulation of HRK gene at 10 uM incubated for 24 hrs by RT-PCR analysis; assay type: functional, cell-based
MDA-MB-231 [9] = experiment: Induction of endoplasmic reticulum stress in human MDA-MB-231 cells assessed as BIP expression at 10 uM incubated for 24 hrs by Western blot analysis (reference value: 1); assay type: functional
MCF7 [10] = experiment: Induction of apoptosis in human MCF7 cells assessed as PARP level at 10 uM incubated for 24 hrs by Western blot analysis (reference value: 1); assay type: functional
MCF7 [11] = experiment: Induction of endoplasmic reticulum stress in human MCF7 cells assessed as BIP expression at 10 uM incubated for 24 hrs by Western blot analysis (reference value: 1); assay type: functional
MCF7 [12] = experiment: Induction of apoptosis in human MCF7 cells assessed as cleaved pro-caspase 8 level at 10 uM incubated for 24 hrs by Western blot analysis (reference value: 1); assay type: functional
[13] = tested on: Epidermoid carcinoma cell line; experiment: Cytotoxicity against human Epidermoid carcinoma cell line; assay type: functional, cell-based
[14] = Induction of caspase 3/7 activity in human MCF7 cells assessed as induction of apoptosis by measuring necrotic cells at 10 uM incubated for 24 hrs by flow cytometry analysis (reference value: 3.30 %); assay type: functional
MDA-MB-231 [15] = experiment: Induction of early apoptosis in human MDA-MB-231 cells assessed as increase in PI negativity at 10 uM incubated for 24 hrs by Hoechst 33342 and PI staining based fluorescence microscopic analysis; assay type: functional, cell-based
MDA-MB-231 [16] = experiment: Induction of late apoptosis in human MDA-MB-231 cells assessed as increase in rate of formation of pycnotic nuclei at 10 uM by Hoechst 33342 and PI staining based fluorescence microscopic analysis; assay type: functional, cell-based; details: TDE = time-dependent effect
MCF7 [17] = experiment: Induction of apoptosis in human MCF7 cells assessed as early apoptotic cells at 10 uM incubated for 24 hrs by annexin V-FITC and PI staining based flow cytometry analysis (reference value: 0.20 %); assay type: functional
MDA-MB-231 [18] = experiment: Induction of cell death in human MDA-MB-231 cells assessed as downregulation of MLKL gene at 10 uM measured after 48 hrs by RT-PCR analysis; assay type: functional, cell-based
MCF7 [19] = experiment: Induction of apoptosis in human MCF7 cells assessed as viable cells at 10 uM incubated for 24 hrs by annexin V-FITC and PI staining based flow cytometry analysis (reference value: 69.60 %); assay type: functional; details: read-out: Activity
MCF7 [20] = experiment: Induction of apoptosis in human MCF7 cells assessed as pro-caspase 8 level at 10 uM incubated for 24 hrs by Western blot analysis (reference value: 1); assay type: functional
MDA-MB-231 [21] = experiment: Induction of endoplasmic reticulum stress in human MDA-MB-231 cells assessed as IRE1-alpha expression at 10 uM incubated for 24 hrs by Western blot analysis (reference value: 1); assay type: functional
MDA-MB-231 [22] = experiment: Induction of apoptosis in human MDA-MB-231 cells assessed as pro-caspase 3 level at 10 uM incubated for 24 hrs by Western blot analysis (reference value: 1); assay type: functional
MDA-MB-231 [23] = experiment: Induction of apoptosis in human MDA-MB-231 cells assessed as early apoptotic cells at 10 uM incubated for 24 hrs by annexin V-FITC and PI staining based flow cytometry analysis (reference value: 0.70 %); assay type: functional
MCF7 [24] = experiment: Induction of apoptosis in human MCF7 cells assessed as necrotic cells at 10 uM incubated for 24 hrs by annexin V-FITC and PI staining based flow cytometry analysis (reference value: 15.60 %); assay type: functional
MDA-MB-231 [25] = experiment: Induction of apoptosis in human MDA-MB-231 cells assessed as viable cells at 10 uM incubated for 24 hrs by annexin V-FITC and PI staining based flow cytometry analysis (reference value: 94.40 %); assay type: functional; details: read-out: Activity
MDA-MB-231 [26] = experiment: Induction of apoptosis in human MDA-MB-231 cells assessed as cleaved pro-caspase 8 level at 10 uM incubated for 24 hrs by Western blot analysis (reference value: 1); assay type: functional
MDA-MB-231 [27] = experiment: Induction of apoptosis in human MDA-MB-231 cells assessed as cleaved PARP level at 10 uM incubated for 24 hrs by Western blot analysis (reference value: 1); assay type: functional
MCF7 [28] = experiment: Induction of cell death in human MCF7 cells assessed as downregulation of RIPK gene at 10 uM measured after 48 hrs by RT-PCR analysis; assay type: functional, cell-based
MDA-MB-231 [29] = experiment: Induction of apoptosis in human MDA-MB-231 cells assessed as late apoptotic cells at 10 uM incubated for 24 hrs by annexin V-FITC and PI staining based flow cytometry analysis (reference value: 3.95 %); assay type: functional
[30] = Induction of caspase 3/7 activity in human MCF7 cells assessed as induction of apoptosis by measuring late apoptotic cells at 10 uM incubated for 24 hrs by flow cytometry analysis (reference value: 22.90 %); assay type: functional
MCF7 [31] = experiment: Induction of cell death in human MCF7 cells assessed as downregulation of MLKL gene at 10 uM measured after 48 hrs by RT-PCR analysis; assay type: functional, cell-based
MCF7 [32] = experiment: Induction of apoptosis in human MCF7 cells at 10 uM by annexin V-FITC and PI staining based flow cytometry analysis; assay type: functional, cell-based; details: TDE = time-dependent effect
MDA-MB-231 [33] = experiment: Induction of cell death in human MDA-MB-231 cells assessed as upregulation of BECN1 gene at 10 uM incubated for 48 hrs by RT-PCR analysis; assay type: functional, cell-based
MCF7 [34] = experiment: Induction of early apoptosis in human MCF7 cells assessed as increase in PI negativity at 10 uM incubated for 24 hrs by Hoechst 33342 and PI staining based fluorescence microscopic analysis; assay type: functional, cell-based
MCF7 [35] = experiment: Induction of endoplasmic reticulum stress in human MCF7 cells assessed as IRE1-alpha expression at 10 uM incubated for 24 hrs by Western blot analysis (reference value: 1); assay type: functional
MDA-MB-231 [36] = experiment: Induction of cell death in human MDA-MB-231 cells assessed as upregulation of BECN1 gene at 10 uM measured after 48 hrs by RT-PCR analysis; assay type: functional, cell-based

SMILES: COC(=O)[C@@]1(C)CC[C@]2(C)CC[C@]3(C)[C@H](C(=O)C=C4[C@@]5(C)C=C(C#N)C(=O)C(C)(C)[C@@H]5CC[C@]43C)[C@@H]2C1
- Activity [1]: 10.35%
- fold change (FC) (MCF7 [2]): 1.7
- fold change (FC) (MCF7 [3]): 1.2
- pIC50 (MDA-MB-231 [4]): 5.17
- Activity (MCF7 [5]): inactive
- Activity (MCF7 [6]): Tde
- Activity (MDA-MB-231 [7]): Active
- Activity (MCF7 [8]): Active
- fold change (FC) (MDA-MB-231 [9]): 2
- fold change (FC) (MCF7 [10]): 0.3
- fold change (FC) (MCF7 [11]): 0.8
- fold change (FC) (MCF7 [12]): 1.01
- pIC50 [13]: ≤ 6.52
- Activity [14]: 14.7%
- Activity (MDA-MB-231 [15]): Active
- Activity (MDA-MB-231 [16]): Tde
- Activity (MCF7 [17]): 0.2%
- Activity (MDA-MB-231 [18]): inactive
- viability at 10 µM (MCF7 [19]): 70.7%
- fold change (FC) (MCF7 [20]): 1.2
- fold change (FC) (MDA-MB-231 [21]): 1.1
- fold change (FC) (MDA-MB-231 [22]): 1.3
- Activity (MDA-MB-231 [23]): 2.95%
- Activity (MCF7 [24]): 10.8%
- viability at 10 µM (MDA-MB-231 [25]): 25.2%
- fold change (FC) (MDA-MB-231 [26]): 2.4
- fold change (FC) (MDA-MB-231 [27]): 6.3
- Activity (MCF7 [28]): inactive
- Activity (MDA-MB-231 [29]): 69.55%
- Activity [30]: 24.55%
- Activity (MCF7 [31]): inactive
- Activity (MCF7 [32]): Tde
- Activity (MDA-MB-231 [33]): Active
- Activity (MCF7 [34]): Active
- fold change (FC) (MCF7 [35]): 0.6
- Activity (MDA-MB-231 [36]): inactive
